Reference: patent US20040019018A1, “Rigid pyrrolidone modulators of pkc” (priority 2003, published 2004)
pKi: −log10 of the molar value.

Assays:
[1] = tested on: LNCaP prostate cancer cells; test: Induction of apoptosis in LNCaP prostate cancer cells (DAPI staining); assay type: cell-based
Method: The capacity of inducing apoptosis by compound (1) was evaluated in a model of LNCaP prostate cancer cells. It is well established that in this model phorbol esters (e.g., PMA) activate PKC to induce apoptosis (reference 13). LNCaP cells were treated with compound (1) for 1 h, and apoptosis was assessed 24 h later.
Control cells or cells infected for 14 h with adenoviruses for LacZ, PKCα, or PKCδ (multiplicity of infection=10 pfu/cell) were treated with different concentrations of compound (1) or PMA for 1 h. Cells were collected 24 h later and stained with DAPI. The incidence of apoptosis in each preparation was analyzed by counting 500 cells and determining the percentage of apoptotic cells. Results are the mean±standard error of three independent experiments.
It is well established that PKCα and PKCδ are the isozymes that mediate phorbol ester-induced apoptosis in LNCaP cells (references 13c-e). A model that has been used to assess isozyme-specificity is the overexpression of specific PKCs by an adenoviral system. Infection of LNCaP cells with adenoviruses for PKCs leads to a high expression of the corresponding PKC isozyme, as determined by Western-blot analysis, kinase activity, or [^3H]PDBu binding (reference 13e).

[2] = tested on: sAPP α; test: Secreted APP from human fibroblasts, Western blot with 6E10 (Example 14); assay type: cell-based; details: human fibroblasts (AD patients)
Method: Human fibroblasts were grown to confluence as above for PKC translocation. On the day of the experiment, cells were rinsed twice with serum-free Dulbecco's modified Eagle's medium (DMEM) and incubated in the same medium for 2 hours. Cells were treated with the drugs above, or DMSO vehicle as a control, for 2 hours. The medium was collected and spun for 5 min in a clinical centrifuge to remove cell debris. Proteins in the cell medium were precipitated using 10% trichloroacetic acid (TCA). Precipitated proteins were dissolved in electrophoresis buffer, separated on 8% SDS-PAGE as described above. Secreted APP was detected by Western blotting using a specific monoclonal antibody, 6E10.

[3] = tested on: soluble APPα (sAPPα); test: Secretion of soluble APPα from human fibroblasts (Example 15); assay type: cell-based; details: 10-20 μM, 2 hours
Method: Human fibroblasts from Alzheimer's patients (AD, cell line AG06848) or age-matched controls (AC, cell line AG07141) were grown to near confluence in DMEM containing 10% fetal bovine serum. On the day of the experiments, cells were rinsed twice with DMEM with no serum and incubated with the same […] for 2 hours at 37° C., 5% CO2. Cells were incubated for 2 additional hours with different concentrations of the drugs or equal volume of DMSO vehicle as control. The medium was collected and centrifuged at 1000 rpm to remove cell debris. Proteins were precipitated by addition of equal volume of 20% ice-cold tricholoroacetic acid (TCA) and incubation on ice for 60 minutes. The protein pellets were washed with ice-cold acetone and centrifuged for 30 minutes at 20,000 g for 30 minutes and dried overnight. Pellets were dissolved in electrophoresis buffer and proteins corresponding to the same concentration of protein were separated by SDS-PAGE and transferred to PVDF membranes according to the manufacturer's instructions. After electrophoresis, the membranes were blocked with Blotto and incubated overnight with a monoclonal antibody 6E10 (Synetek) that recognizes the APPα. After incubation with the secondary antibody, alkaline phosphatase anti-mouse IgG (Jackson's Laboratories), the membranes were developed using an alkaline phosphatase kit (BioRad) as per the manufacturer's instructions.

[4] = target: whole brain PKC; test: [3H]PDBu displacement from unresolved mixture of PKC isozymes from whole brain extracts; assay type: binding; details: [3H]PDBu competition
Method: The ability of representative compounds of the invention to bind specific isozymes of PKC was determined using an assay (Example 13) in which displacement of [20-^3H]phorbol -12,13-dibutyrate ([^3H]PDBu) from either recombinant PKC isozymes prepared in a Baculovirus system, or unresolved mixture of isozymes of PKC isolated from whole brain extracts, was used. These procedures are described below. As described in detail below, preferred compounds for neurological effects are those in which affinity for α, β and γ isozymes is the greatest (i.e. those having the lowest Ki) relative to other isozymes as such as the δ- and ε-isozymes shown in Table 1. […]
Analysis of [20-^3H]phorbol 12,13-dibutyrate binding to PKC. […] Phosphatidylserine and bovine […] were obtained from Sigma Chemical Co. Binding was determined in an incubation volume of 250 μl, containing [^3H]PDBu, PKC, 0.05 M Tris-Cl, pH 7.4, 100 μg/ml phosphatidylserine, various concentrations of the ligand being assayed for competition of [^3H]PDBu binding, and bovine […] at 1 mg/ml. […] [^3H]PDBu was used at a concentration twice the Kd previously determined for the specific receptor. […]
Specific binding represents the difference between total binding and the non-specific binding, where the latter value was calculated from the partition coefficient and the measured free [^3H]PDBu concentration in each tube. […]

SMILES | apoptotic effect in LNCaP cells ([1]; 1-30 μM, treated 1 h, apoptosis assessed 24 h later, FIG. 6A) | apoptotic effect with control adenovirus ([1]; LNCaP cells infected with LacZ adenovirus) | apoptotic response with overexpression of PKC isozymes ([1]; LNCaP cells infected with adenoviruses for PKCα or PKCδ) | secretion of sAPP [2] | secretion of soluble APPα (sAPPα) [3] | pKi [4]
CCCCCCCCC#Cc1ccc2c(c1)C(C)(C(C)C)C1C(=O)NC(CO)C21 [Compound 1, (3S, 8R, 9S, 10S)-6-(dec-1′-ynyl)-3-hydroxymethyl-8-isopropyl-8-methyl-3,3a,8,8a-tetrahydro-2H-2-aza-cyclopenta[a]inden-1-one] | induces a dose-dependent apoptotic effect | did not affect the apoptotic effect | markedly potentiates the apoptotic response | increased the secretion of sAPP | increased the secretion of soluble APPα (sAPPα) significantly | < 5.00
CCCCCCCCCCCC(=O)Oc1ccc2c(c1)[C@](C)(C(C)C)[C@H]1C(=O)N[C@H](CO)[C@@H]21 [Compound 2, (3S, 8R, 9S, 10S)-6-dodecanoyloxyl-3-hydroxymethyl-8-isopropyl-8-methyl-3,3a,8,8a-tetrahydro-2H -2-aza-cyclopenta[a]inden-1-one] |  |  |  |  |  | < 5.00
